# Where two headings read alike, the source gives them in different places. Marks after values point to notes of the source that are not given here.
# Procedure: The vial was placed in a first 3 mL low density polyethylene (LDPE) bag with a 1/6 desiccant and the bag was twist tie closed. The first bag was placed in a second 3 mL LDPE bag, twist tie closed, and placed in a high density polyethylene (HDPE) container.
compound,measurement,setting,value
CC[n+]1ccccc1-c1c2nc(c(-c3cccc[n+]3CC)c3ccc([n-]3)c(-c3cccc[n+]3CC)c3nc(c(-c4cccc[n+]4CC)c4ccc1[n-]4)C=C3)C=C2.[Cl-].[Cl-].[Cl-].[Cl-].[Cl-].[Mn+3] [BMX-010],Appearance,"25° C./60% RH, 3 Month",Brown Solid
same,"Assay by UPLC (Wt % of an anhydrous basis, sum of Atropisomers)","25° C./60% RH, 3 Month",100.3%
same,PSD D10,"25° C./60% RH, 3 Month",D10: 0.60 μm
same,PSD D50,"25° C./60% RH, 3 Month",D50: 1.1 μm
same,PSD D90,"25° C./60% RH, 3 Month",D90: 2.0 μm
same,Total Impurities by HPLC (Area %),"25° C./60% RH, 3 Month",0.81%
same,Water Content by Karl Fischer,"25° C./60% RH, 3 Month",7.3%
same,Appearance,"25° C./60% RH, 6 Month",Brown Solid
same,"Assay by UPLC (Wt % of an anhydrous basis, sum of Atropisomers)","25° C./60% RH, 6 Month",99.9%
same,PSD D10,"25° C./60% RH, 6 Month",D10: 0.62 μm*
same,PSD D50,"25° C./60% RH, 6 Month",D50: 1.2 μm*
same,PSD D90,"25° C./60% RH, 6 Month",D90: 2.0 μm*
same,Total Impurities by HPLC (Area %),"25° C./60% RH, 6 Month",0.88%
same,Water Content by Karl Fischer,"25° C./60% RH, 6 Month",7.7%
same,XRPD,"25° C./60% RH, 6 Month",Amorphous
same,Appearance,"40° C./75% RH, 3 Month",Brown Solid
same,"Assay by UPLC (Wt % of an anhydrous basis, sum of Atropisomers)","40° C./75% RH, 3 Month",100.2%
same,PSD D10,"40° C./75% RH, 3 Month",D10: 0.60 μm
same,PSD D50,"40° C./75% RH, 3 Month",D50: 1.2 μm
same,PSD D90,"40° C./75% RH, 3 Month",D90: 2.1 μm
same,Total Impurities by HPLC (Area %),"40° C./75% RH, 3 Month",1.3%
same,Water Content by Karl Fischer,"40° C./75% RH, 3 Month",7.5%
same,Appearance,"40° C./75% RH, 6 Month",Brown Solid
same,"Assay by UPLC (Wt % of an anhydrous basis, sum of Atropisomers)","40° C./75% RH, 6 Month",97.9%**
same,PSD D10,"40° C./75% RH, 6 Month",D10: 0.61 μm*
same,PSD D50,"40° C./75% RH, 6 Month",D50: 1.2 μm*
same,PSD D90,"40° C./75% RH, 6 Month",D90: 2.1 μm*
same,Total Impurities by HPLC (Area %),"40° C./75% RH, 6 Month",1.6%**
same,Water Content by Karl Fischer,"40° C./75% RH, 6 Month",8.5%
same,XRPD,"40° C./75% RH, 6 Month",Amorphous
same,Appearance,T = 0,Brown Solid
same,"Assay by UPLC (Wt % of an anhydrous basis, sum of Atropisomers)",T = 0,97.5%
same,PSD D10,T = 0,D10: 0.61 μm
same,PSD D50,T = 0,D50: 1.2 μm
same,PSD D90,T = 0,D90: 2.0 μm
same,Total Impurities by HPLC (Area %),T = 0,0.67%
same,Water Content by Karl Fischer,T = 0,6.9%
same,XRPD,T = 0,Amorphous
same,Appearance,"−20° C., 3 Month",Brown Solid
same,"Assay by UPLC (Wt % of an anhydrous basis, sum of Atropisomers)","−20° C., 3 Month",101.4%
same,PSD D10,"−20° C., 3 Month",D10: 0.59 μm
same,PSD D50,"−20° C., 3 Month",D50: 1.1 μm
same,PSD D90,"−20° C., 3 Month",D90: 2.0 μm
same,Total Impurities by HPLC (Area %),"−20° C., 3 Month",0.63%
same,Water Content by Karl Fischer,"−20° C., 3 Month",7.0%
same,Appearance,"−20° C., 6 Month",Brown Solid
same,"Assay by UPLC (Wt % of an anhydrous basis, sum of Atropisomers)","−20° C., 6 Month",100.7%
same,PSD D10,"−20° C., 6 Month",D10: 0.59 μm*
same,PSD D50,"−20° C., 6 Month",D50: 1.1 μm*
same,PSD D90,"−20° C., 6 Month",D90: 1.9 μm*
same,Total Impurities by HPLC (Area %),"−20° C., 6 Month",0.63%
same,Water Content by Karl Fischer,"−20° C., 6 Month",7.4%
same,XRPD,"−20° C., 6 Month",Amorphous

# Source: patent US20230391809A1, “HYDROPHOBIC COMPOSITIONS INCLUDING A HYDROPHILIC ACTIVE INGREDIENT AND METHODS RELATING THERETO” (BioMimetix JV, LLC, priority 2022, published 2023)
